This assay addresses T1, Seed linoleate 13S-lipoxygenase-1 (Glycine max, UniProt P08170).
T1 sequence (P08170 whole entry): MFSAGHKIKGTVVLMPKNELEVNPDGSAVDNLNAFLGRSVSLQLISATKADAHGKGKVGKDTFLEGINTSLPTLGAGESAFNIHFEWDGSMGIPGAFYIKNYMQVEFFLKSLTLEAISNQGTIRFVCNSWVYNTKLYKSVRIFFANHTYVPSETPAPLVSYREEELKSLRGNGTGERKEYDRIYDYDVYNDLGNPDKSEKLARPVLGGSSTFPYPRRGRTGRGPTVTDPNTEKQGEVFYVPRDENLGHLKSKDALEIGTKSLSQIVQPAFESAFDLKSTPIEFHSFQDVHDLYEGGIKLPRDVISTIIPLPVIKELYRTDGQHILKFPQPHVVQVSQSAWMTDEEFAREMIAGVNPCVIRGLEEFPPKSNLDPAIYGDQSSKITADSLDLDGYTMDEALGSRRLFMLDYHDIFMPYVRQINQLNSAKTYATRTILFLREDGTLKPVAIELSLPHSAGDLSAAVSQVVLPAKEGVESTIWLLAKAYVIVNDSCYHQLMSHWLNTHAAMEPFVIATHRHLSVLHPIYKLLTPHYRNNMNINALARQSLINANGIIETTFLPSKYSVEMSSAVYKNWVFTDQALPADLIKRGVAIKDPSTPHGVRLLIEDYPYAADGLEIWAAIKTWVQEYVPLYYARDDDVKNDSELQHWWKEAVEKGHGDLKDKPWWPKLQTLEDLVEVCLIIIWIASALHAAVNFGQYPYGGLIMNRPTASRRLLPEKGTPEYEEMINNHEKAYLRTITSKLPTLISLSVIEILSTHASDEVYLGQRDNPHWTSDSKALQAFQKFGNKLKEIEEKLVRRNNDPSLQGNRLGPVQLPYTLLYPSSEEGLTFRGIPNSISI
Kind of assay: In-vitro LOX Inhibition Assay. To be noted: pH 9; 25 °C. Here is the method: It is determined by kinetic mode of spectro-photometric determination method,which was performed by recording the rate of change in absorbance at 234 nm. It is based on the principle that the increase of absorbance at 234 nm due to formation of 9- and 13- hydroperoxides by LOX with substrate (linoleic acid). […] Briefly, the stock solution of lipoxygenase was prepared by dissolving 10,000 units/ml of Lipoxidase in 200 mM borate buffer, pH 9, and 5 uL of 80 mmol linoleic acid. Six different concentrations of inhibitors were selected, and made for determining the enzyme inhibition activity. Increasing concentrations of inhibitors were added to enzyme solution and kept for 5 min followed by substrate addition and kept at room temperature with stirring for 20 min.

Molecules are shown by their SMILES.

As usually defined, the IC50 is the concentration that gives 50% inhibition.

Consider `COc1ccc2nc(NCC(O)COc3ccc4c(C)cc(=O)oc4c3)sc2c1` (stereo not given) [7-(2-hydroxy-3-(6-methoxybenzo[d]thiazol-2-ylamino)propoxy)-4-methyl-2H-chromen-2-one (35)], for which inhibition was half-maximal at 2.12 nM (IC50).
For the compound `Cc1cc(=O)oc2cc(OCC(O)CNc3nc4ccc([N+](=O)[O-])cc4s3)ccc12` (stereo not given) [7-(2-hydroxy-3-(6-nitrobenzo[d]thiazol-2-ylamino)propoxy)-4-methyl-2H-chromen-2-one (31)], the IC50 was found to be 3.24 nM.
The compound `Cc1cc(=O)oc2cc(OCC(O)CNc3nc4cc(Cl)c(Cl)cc4s3)ccc12` (stereo not given) [7-(3-(5,6-dichlorobenzo[d]thiazol-2-ylamino)-2-hydroxypropoxy)-4-methyl-2H-chromen-2-one (34)] yielded a concentration for half-maximal inhibition (IC50) of 15.5 nM.
`Cc1cc(=O)oc2cc(OCC(O)CNc3nc4cc(Cl)c(F)cc4s3)ccc12` (stereo not given) [7-(3-(5-chloro-6-fluorobenzo[d]thiazol-2-ylamino)-2-hydroxypropoxy)-4-methyl-2H-chromen-2-one (32)] yielded an IC50 of 6.16 nM. Compared with the last compound, the IC50 is about 2.5-fold lower.
In turn, `Cc1cc(=O)oc2cc(OCC(O)CNc3nc4ccc(Cl)cc4s3)ccc12` (stereo not given) [7-(3-(6-chlorobenzo[d]thiazol-2-ylamino)-2-hydroxypropoxy)-4-methyl-2H-chromen-2-one (33)] registered an IC50 of 2.79 nM.
